Experimental data: PubChem BioAssay AID2060497 (Molecular Pharmacology Branch, DTP, NCI, 2025)

Tested on: 317291-083-R-J1-PDC complex spheroids, viability
Assay: Anticancer human tumor 317291-083-R-J1-PDC patient-derived soft tissue sarcoma cell line growth inhibition [GQUAD]
Settings: for IC50: curve of first compound; for viability, T/C: stronger effect = lower value; active = viability on the fitted dose curve at most 10% of control; inactive = the rest
Summary of the method: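 Multi-cell-type spheroids of tumor cells with HUVEC and mesenchymal stem cells, treated with drug combinations. Concentrations descend in half-log steps from near clinical Cmax, or from 10 microM where Cmax is unknown; viability read-out.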

[1] = second compound 0.0316 µM, first compound 0.0316 µM
[2] = second compound 0.0316 µM, first compound 0.1 µM
[3] = second compound 0.0316 µM, first compound 0.316 µM
[4] = second compound 0.0316 µM, first compound 1 µM
[5] = second compound 0.0316 µM, first compound 3.16 µM
[6] = second compound 0.0316 µM, first compound 10 µM
[7] = second compound 0.1 µM, first compound 0.0316 µM
[8] = second compound 0.1 µM, first compound 0.1 µM
[9] = second compound 0.1 µM, first compound 0.316 µM
[10] = second compound 0.1 µM, first compound 1 µM
[11] = second compound 0.1 µM, first compound 3.16 µM
[12] = second compound 0.1 µM, first compound 10 µM
[13] = second compound 0.316 µM, first compound 0.0316 µM
[14] = second compound 0.316 µM, first compound 0.1 µM
[15] = second compound 0.316 µM, first compound 0.316 µM
[16] = second compound 0.316 µM, first compound 1 µM
[17] = second compound 0.316 µM, first compound 3.16 µM
[18] = second compound 0.316 µM, first compound 10 µM
[19] = second compound 1 µM, first compound 0.0316 µM
[20] = second compound 1 µM, first compound 0.1 µM
[21] = second compound 1 µM, first compound 0.316 µM
[22] = second compound 1 µM, first compound 1 µM
[23] = second compound 1 µM, first compound 3.16 µM
[24] = second compound 1 µM, first compound 10 µM
[25] = second compound 3.16 µM, first compound 0.0316 µM
[26] = second compound 3.16 µM, first compound 0.1 µM
[27] = second compound 3.16 µM, first compound 0.316 µM
[28] = second compound 3.16 µM, first compound 1 µM
[29] = second compound 3.16 µM, first compound 3.16 µM
[30] = second compound 3.16 µM, first compound 10 µM
[31] = second compound 10 µM, first compound 0.0316 µM
[32] = second compound 10 µM, first compound 0.1 µM
[33] = second compound 10 µM, first compound 0.316 µM
[34] = second compound 10 µM, first compound 1 µM
[35] = second compound 10 µM, first compound 3.16 µM
[36] = second compound 10 µM, first compound 10 µM
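Also: spheroids exposed to compounds for one week before readout.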
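For viability, T/C in this document: percent viability relative to DMSO vehicle wells taken as 100%.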

O=c1[nH]cc(F)c(=O)[nH]1 + Cc1[nH]c2ccc(F)cc2c1-c1nc2c3cccnc3c3ncccc3c2[nH]1
1680 nM: IC50 (second compound 0.1 µM)
1600 nM: IC50 (second compound 1 µM)
823 nM: IC50 (second compound 10 µM)
inactive: viability, T/C [1] 118% | viability, T/C [2] 117% | viability, T/C [3] 116% | viability, T/C [4] 69.5% | viability, T/C [5] 73.3% | viability, T/C [6] 31.8% | viability, T/C [7] 110% | viability, T/C [8] 106% | viability, T/C [9] 96.7% | viability, T/C [10] 62.2% | viability, T/C [11] 34.7% | viability, T/C [12] 30.6% | viability, T/C [13] 108% | viability, T/C [14] 104% | viability, T/C [15] 89.1% | viability, T/C [16] 63.6% | viability, T/C [17] 35.4% | viability, T/C [18] 31.8% | viability, T/C [19] 93.9% | viability, T/C [20] 102% | viability, T/C [21] 102% | viability, T/C [22] 60.9% | viability, T/C [23] 36.5% | viability, T/C [24] 31.9% | viability, T/C [25] 99.3% | viability, T/C [26] 86.6% | viability, T/C [27] 79.2% | viability, T/C [28] 45.2% | viability, T/C [29] 64.3% | viability, T/C [30] 30.2% | viability, T/C [31] 73.6% | viability, T/C [32] 75.9% | viability, T/C [33] 81.5% | viability, T/C [34] 44.5% | viability, T/C [35] 33% | viability, T/C [36] 27.4%
1770 nM: IC50 (second compound 0.316 µM)
2710 nM: IC50 (second compound 3.16 µM)
5340 nM: IC50 (second compound 0.0316 µM)

COc1ncnc(C2CC2)c1-c1ncc2cnn(Cc3ccc(-c4nc(C(F)(F)F)cn4C(C)C)cc3)c2n1 + CN(C)c1ccc(Nc2c3ccc(NC(=O)CCN4CCCC4)cc3nc3cc(NC(=O)CCN4CCCC4)ccc23)cc1
inactive: viability, T/C [1] 88.5% | viability, T/C [2] 77.1% | viability, T/C [3] 69% | viability, T/C [4] 70.3% | viability, T/C [5] 64.3% | viability, T/C [6] 59.9% | viability, T/C [7] 79.9% | viability, T/C [8] 61.4% | viability, T/C [9] 65.9% | viability, T/C [10] 61.4% | viability, T/C [11] 51.6% | viability, T/C [12] 60.2% | viability, T/C [13] 48.2% | viability, T/C [14] 44.2% | viability, T/C [15] 41.9% | viability, T/C [16] 37.4% | viability, T/C [17] 37.4% | viability, T/C [18] 36.1% | viability, T/C [19] 32.4% | viability, T/C [20] 50.2% | viability, T/C [21] 35.7% | viability, T/C [22] 16.5% | viability, T/C [23] 26.6% | viability, T/C [24] 17.3% | viability, T/C [25] 33.4%
< 31.6 nM: IC50 (second compound 0.316 µM) | IC50 (second compound 1 µM) | IC50 (second compound 3.16 µM) | IC50 (second compound 10 µM)
active: viability, T/C [26] 2.38% | viability, T/C [27] 3.48% | viability, T/C [28] 1.13% | viability, T/C [29] 2.41% | viability, T/C [30] 1.37% | viability, T/C [31] 0.61% | viability, T/C [32] 0.24% | viability, T/C [33] 0.23% | viability, T/C [34] 0.23% | viability, T/C [35] 0.28% | viability, T/C [36] 0.22%
> 10000 nM: IC50 (second compound 0.0316 µM) | IC50 (second compound 0.1 µM)

COc1ncnc(C2CC2)c1-c1ncc2cnn(Cc3ccc(-c4nc(C(F)(F)F)cn4C(C)C)cc3)c2n1 + Cc1cnc(CNC(=O)c2c(=O)c3ccc(N4CCCN(C)CC4)nc3n3c2sc2ccccc23)cn1
373 nM: IC50 (second compound 0.316 µM)
active: viability, T/C [31] 0.63% | viability, T/C [32] 0.19% | viability, T/C [33] 0.22% | viability, T/C [34] 0.19% | viability, T/C [35] 0.26% | viability, T/C [36] 0.24%
< 31.6 nM: IC50 (second compound 1 µM) | IC50 (second compound 3.16 µM) | IC50 (second compound 10 µM)
138 nM: IC50 (second compound 0.1 µM)
inactive: viability, T/C [1] 78.3% | viability, T/C [2] 76.8% | viability, T/C [3] 71.6% | viability, T/C [4] 72.2% | viability, T/C [5] 67% | viability, T/C [6] 54.1% | viability, T/C [7] 59.5% | viability, T/C [8] 51.1% | viability, T/C [9] 47.3% | viability, T/C [10] 39.3% | viability, T/C [11] 56.1% | viability, T/C [12] 53% | viability, T/C [13] 46.6% | viability, T/C [14] 48.1% | viability, T/C [15] 63.6% | viability, T/C [16] 31.2% | viability, T/C [17] 37.4% | viability, T/C [18] 32% | viability, T/C [19] 31.3% | viability, T/C [20] 36.8% | viability, T/C [21] 44.1% | viability, T/C [22] 30.5% | viability, T/C [23] 32.3% | viability, T/C [24] 25.8% | viability, T/C [25] 20.5% | viability, T/C [26] 13.6% | viability, T/C [27] 30% | viability, T/C [28] 15.5% | viability, T/C [29] 16.2% | viability, T/C [30] 21.2%
> 10000 nM: IC50 (second compound 0.0316 µM)

COc1ccc([C@@H](O)c2cc(-c3ncnc4cc(N5CCOCC5)ccc34)c(F)cc2Cl)nn1 + Cc1[nH]c2ccc(F)cc2c1-c1nc2c3cccnc3c3ncccc3c2[nH]1
7300 nM: IC50 (second compound 0.1 µM)
2250 nM: IC50 (second compound 10 µM)
3910 nM: IC50 (second compound 3.16 µM)
5890 nM: IC50 (second compound 1 µM)
8490 nM: IC50 (second compound 0.0316 µM)
inactive: viability, T/C [1] 103% | viability, T/C [2] 91.6% | viability, T/C [3] 105% | viability, T/C [4] 79.6% | viability, T/C [5] 72.2% | viability, T/C [6] 46.3% | viability, T/C [7] 102% | viability, T/C [8] 101% | viability, T/C [9] 86.8% | viability, T/C [10] 73.7% | viability, T/C [11] 69.9% | viability, T/C [12] 42.6% | viability, T/C [13] 99.5% | viability, T/C [14] 95.4% | viability, T/C [15] 96.6% | viability, T/C [16] 92.5% | viability, T/C [17] 86.2% | viability, T/C [18] 53% | viability, T/C [19] 90.6% | viability, T/C [20] 110% | viability, T/C [21] 88.6% | viability, T/C [22] 78.5% | viability, T/C [23] 64.3% | viability, T/C [24] 39.1% | viability, T/C [25] 72.4% | viability, T/C [26] 81.8% | viability, T/C [27] 76.4% | viability, T/C [28] 91.7% | viability, T/C [29] 55.6% | viability, T/C [30] 25.2% | viability, T/C [31] 68% | viability, T/C [32] 66.5% | viability, T/C [33] 79% | viability, T/C [34] 54.8% | viability, T/C [35] 47% | viability, T/C [36] 16%
> 10000 nM: IC50 (second compound 0.316 µM)
